{
  "source": "patent US20240180923A1",
  "about": "“METHODS OF TREATING DISORDERS WITH ULK INHIBITORS” (Deciphera Pharmaceuticals, LLC, priority 2022, published 2024)",
  "key": {"[1]": {"experiment": "Nude mouse PK study with adagrasib and DCC-3116 treatment", "type": "in vivo", "conditions": "for AUC(0-t) / Cmax: female, athymic nude, mouse, plasma, po; for AUC(0-t): read-out: adagrasib AUC0-2 h (average); for Cmax: read-out: adagrasib Cmax in plasma (average)", "experimental": "The nude mouse PK study was performed at Attentive Science (Stilwell, KS), an AAALAC accredited facility. Food and water were provided ad libitum. […] Female athymic nude mice (n=3 per group) were dosed for 5 consecutive days. […] At 0, 0.5, and 2 h post final dose blood samples were collected from mice from each group. Blood samples were collected in K2EDTA tubes and processed into plasma, then stored at −20° C. Plasma samples were subjected to pharmacokinetic analysis using liquid chromatography coupled with tandem mass spectrometry analysis."}, "ULK": {"test_system": "ULK", "experiment": "pATG13 ELISA in GIST-T1 cells, DCC-3116 with binimetinib and/or ripretinib", "type": "cell-based", "conditions": "GIST-T1 cell line, FIG. 10", "protocol": "A substrate solution for HRP was added and the absorbance was measured using a plate reader. Data was plotted in GraphPad Prism and fit to a sigmoidal dose response curve to generate IC50 values."}, "[2]": {"experiment": "MiaPaca-2 xenograft PK/PD model: sotorasib plasma PK with DCC-3116", "type": "in vivo, mouse", "conditions": "for AUC(0-t) / Cmax: female, Envigo Nude, mouse, plasma, po, 10 mg/kg", "experimental": "The MiaPaca-2 xenograft model was performed in compliance with all the laws, regulations and guidelines of the National Institutes of Health (NIH) and with the approval of the Animal Care and Use Committee of Labcorp (Ann Arbor, MI), an AAALAC accredited facility. Food and water were provided ad libitum. […] Female Envigo Nude mice (6-7 weeks old) were inoculated subcutaneously just below the right high axilla with ten million cells in Dulbecco's Phosphate Buffered Saline with 50% Matrigel, using a 27-gauge needle and syringe. When tumor burdens reached 182 mm^3 on average on day 6, mice were randomly assigned into groups such that the mean tumor burden for all groups was within 10% of the overall mean tumor burden for the study population. […] At 2 h post final dose in the vehicle group, and 2, 6, and 10 h post final dose in the treatment groups, 3 mice from each group were sacrificed for tumor and plasma sampling. Blood samples were collected in K2EDTA tubes and processed into plasma, snap frozen in liquid nitrogen then stored at −80° C. Plasma samples were subjected to pharmacokinetic analysis using liquid chromatography coupled with tandem mass spectrometry analysis (Cayman Chemical, Ann Arbor, MI). Tumors were harvested and powdered over liquid nitrogen in covaris bags and stored at −80° C."}, "[3]": {"conditions": "25 mg/kg, adagrasib in combination with 25 mg/kg DCC-3116 (first statement)"}, "[4]": {"conditions": "25 mg/kg, adagrasib in combination with 25 mg/kg DCC-3116 (second statement)"}, "[5]": {"conditions": "100 mg/kg, adagrasib 100 mg/kg PO QD single agent, 5 days"}, "[6]": {"conditions": "10 mg/kg sotorasib + 10 mg/kg DCC-3116"}, "[7]": {"conditions": "10 mg/kg sotorasib + 25 mg/kg DCC-3116"}, "[8]": {"conditions": "10 mg/kg sotorasib + 100 mg/kg DCC-3116"}, "[9]": {"conditions": "10 mg/kg sotorasib as a single agent"}},
  "data": [
    {"smiles": "C=C(F)C(=O)N1CCN(c2nc(OC[C@@H]3CCCN3C)nc3c2CCN(c2cccc4cccc(Cl)c24)C3)C[C@@H]1CC#N", "note": "[adagrasib, reference compound]", "values": [
      {"measurement": "differences in adagrasib Cmax and AUC0-2 h amongst groups", "setting": "[1]; adagrasib alone versus with DCC-3116", "result": "not statistically significant"},
      {"measurement": "AUC(0-t)", "setting": "[1]; [3]", "result": 2970, "unit": "ng·h/mL"},
      {"measurement": "Cmax", "setting": "[1]; [3]", "result": 1880, "unit": "ng/mL"},
      {"measurement": "AUC(0-t)", "setting": "[1]; [4]", "result": 3560, "unit": "ng·h/mL"},
      {"measurement": "Cmax", "setting": "[1]; [4]", "result": 2060, "unit": "ng/mL"},
      {"measurement": "AUC(0-t)", "setting": "[1]; [5]", "result": 4230, "unit": "ng·h/mL"},
      {"measurement": "Cmax", "setting": "[1]; [5]", "result": 2530, "unit": "ng/mL"}
    ]},
    {"smiles": "Cn1cnc2c(F)c(Nc3ccc(Br)cc3F)c(C(=O)NOCCO)cc21", "note": "[binimetinib]", "values": [
      {"measurement": "effect on ULK activity", "setting": "ULK", "result": "induces ULK Activity"}
    ]},
    {"smiles": "C=CC(=O)N1CCN(c2nc(=O)n(-c3c(C)ccnc3C(C)C)c3nc(-c4c(O)cccc4F)c(F)cc23)[C@@H](C)C1", "note": "[sotorasib]", "values": [
      {"measurement": "AUC(0-t)", "setting": "[2]; [6]", "result": 344, "unit": "ng·h/mL"},
      {"measurement": "Cmax", "setting": "[2]; [6]", "result": 76, "unit": "ng/mL"},
      {"measurement": "AUC(0-t)", "setting": "[2]; [7]", "result": 727, "unit": "ng·h/mL"},
      {"measurement": "Cmax", "setting": "[2]; [7]", "result": 170, "unit": "ng/mL"},
      {"measurement": "AUC(0-t)", "setting": "[2]; [8]", "result": 385, "unit": "ng·h/mL"},
      {"measurement": "Cmax", "setting": "[2]; [8]", "result": 74, "unit": "ng/mL"},
      {"measurement": "AUC(0-t)", "setting": "[2]; [9]", "result": 963, "unit": "ng·h/mL"},
      {"measurement": "Cmax", "setting": "[2]; [9]", "result": 296, "unit": "ng/mL"},
      {"measurement": "differences in sotorasib Cmax and AUC0-10 h amongst groups", "setting": "[2]; sotorasib alone versus with DCC-3116", "result": "not statistically significant"}
    ]}
  ]
}
